Several values for one entry are separate records, joined by “and”; a condition that tells them apart may be missing. Equal entries are not always repeated.
Key:
[1] = molar enthalpy of vaporization or sublimation; details: Static calorimetry
[2] = molar heat capacity at constant pressure; details: 101.33 kPa, Crystal 2, DSC
[3] = Molar enthalpy of transition or fusion; details: DSC
[4] = for mass density: 101.33 kPa, X-ray diffraction; for Normal melting temperature: DTA

[C-]#[O+].[C-]#[O+].[C-]#[O+].[C-]#[O+].[C-]#[O+].[C-]#[O+].[C-]#[O+].[C-]#[O+].[C-]#[O+].[C-]#[O+].[Re].[Re] [decacarbonyldirhenium]
Details | mass density [kg/m3] | molar enthalpy [kcal/mol]
[1], 332.8 K, Crystal 2 | – | 23
[4], 293 K, Crystal | 2932 | –

Details | Molar enthalpy of transition or fusion [kcal/mol] | Normal melting temperature [°C] | Triple point temperature [K] | molar heat capacity at constant pressure [J/K/mol]
[2], 298.15 K | – | – | – | 391.8
[2], 303.15 K | – | – | – | 396.5
[2], 308.15 K | – | – | – | 401.1
[2], 313.15 K | – | – | – | 405.5
[2], 318.15 K | – | – | – | 409.8
[2], 323.15 K | – | – | – | 413.9
[2], 328.15 K | – | – | – | 417.9
[2], 333.15 K | – | – | – | 421.8
[2], 338.15 K | – | – | – | 425.5
[3], Crystal 1 | 1 | – | – | –
[3], Crystal 2 | 3.66 | – | – | –
[4], Crystal 1 | – | 182.01 | – | –
[4], Crystal 2, DSC | – | – | 366.75 | –

[CH3][Re](=[O])(=[O])=[O] [methyltrioxorhenium]
Crystal
Details | mass density, 167 K [kg/m3] | mass density, 214 K [kg/m3] | mass density, 296 K | molar enthalpy, 298 K [kcal/mol]
[1] | – | – | – | 16.79
[4] | 4254 | 4199 | 4124 kg/m3 and 4132 kg/m3 | –

Crystal
Details | Molar enthalpy of transition or fusion [kcal/mol] | Normal melting temperature [°C]
[3] | 4.72 | –
[4] | – | 112.59

From the NIST ThermoML archive (doi:10.1016/j.jct.2019.01.016)
